{"source": "patent US20240299393A1", "about": "“SMALL MOLECULE DISRUPTORS OF PROTEIN INTERACTIONS IN HISTONE DEACETYLASE COMPLEXES” (Dana-Farber Cancer Institute, Inc., priority 2021, published 2024)", "key": {"[1]": {"test_system": "CDKN1A, SOCS3, EGR1 in SK-N-BE(2)-C cells", "assay": "RT-qPCR of SIN3 HDAC complex-regulated genes in neuroblastoma cells", "type": "cell-based, human", "conditions": "100 μM for 16 h", "method": "The RT-qPCR protocol used in this study was described elsewhere [Choi et al 2012]. Culture, RNA extraction, and compound treatments for neuroblastoma SK-N-BE(2)-C cells are described below. Approximately 1 μg RNA per sample was used for reverse transcription. Using a thermocycler, RNA was denatured in the presence of 0.2 μg 18 mer oligo-dT by heating the plate at 65° C. for 10 min. The plate was then immediately cooled down on ice to anneal oligo-dT on the poly-A tail of mRNA. A master mix of AffinityScript Multiple Temperature Reverses Transcriptase (Agilent, cat #600107) was prepared following the manufacturer's protocol, and mixed with RNA samples previously annealed with the oligo-dT. The plate was incubated at 42° C. for 2 h to generate cDNAs from mRNA templates. The reverse transcriptase was then denatured by heating the plate at 70° C. for 15 min. The resulting cDNA was diluted (1:20) in sterile, ultra pure water (ddH2O), and stored at −20° C. until used for qPCR. To measure gene expression, the diluted cDNA was mixed with 5 μL PowerUp SYBR Green master mix (Applied Biosystems, cat #A25743), and the mix of primers (forward+reverse, see FIG. 31; 0.3 μM final concentration) for a total volume of 10 μL. Two technical replicates were generated per cDNA sample in the 384-well PCR plate (Applied Biosystems, cat #4343370). The plate was tightly sealed with optical adhesive film (Applied Biosystems, cat #4311971). Quantitative PCR was conducted with a QuantStudio real-time PCR system from Applied Biosystems, with the following settings: 50° C./2 min, 95° C./10 min, 96° C./15 s/40 cycles, and 60° C./30 s. Dissociation curves were checked for each PCR product, to assess the specificity of the PCR amplicons.\nSK-N-BE(2)-C cells were maintained in cell culture flasks supplemented with 10% Fetal bovine serum (FBS) and penicillin/streptomycin (PS) in Dulbecco's Modified Eagle's Medium (DMEM). The cells were maintained at a log phase in a humidified 5% CO2 incubator at 37° C. For testing the effect of the compounds on gene expression, approximately 0.1 million cells were seeded on each well of 24-well cell culture plates, with 1 mL 10% FBS+PS+DMEM. 24 h after seeding the cells, they were exposed to the compounds or DMSO control for 16 h in a humidified 5% CO2 incubator at 37° C., before harvesting them.\nCells were harvested for RNA extraction using Nucleospin 96 RNA (Macherey-Nagel, cat #740709.4) following manufacturer's protocol. Briefly, supernatant was removed, and the cells were gently washed with 1× phosphate-buffered saline. 300 μL lysis buffer were added to each well of 24 well cell culture plates. Roughly 0.1 million cells were used for harvesting each RNA sample. RNA concentration was measured for all purified RNA samples using a nanodrop spectrophotometer."}, "[2]": {"test_system": "human neuroblastoma SK-N-BE(2)-C cells", "assay": "Single-cell RNA-seq in neuroblastoma cells", "type": "cell-based", "conditions": "1 μM TSA, 25 μM E6R, 16 h", "method": "Cells were grown in DMEM media supplemented with 10% FBS+PS in a 5% CO2 incubator at 37° C. […] Cells were harvested by incubating them in TryplE for 10 min. Cells were spun down for 5 min at 300 g, and the supernatant was removed. Cells were counted via hemocytometer to 20,000 cells and resuspended in 200 μL of media.\nHigh-throughput scRNA-seq was performed using the Seq-Well S^3 platform as previously described [Gierahn et al 2017, Hughes et al 2020]. Briefly, 20,000 cells were applied to the surface of each Seq-Well array which had been preloaded with uniquely barcoded poly(dT) mRNA capture beads (Chemgenes). Following cell loading, arrays were washed with RPMI and then sealed with a polycarbonate membrane and placed in a 37° C. incubator for 30 min. After membrane sealing, the arrays were submerged in a lysis buffer (5 M guanidine thiocyanate, 10 mM EDTA, 0.1% β-mercaptoethanol, 0.1% Sarkosyl) for 20 min, and subsequently incubated in a 2 M NaCl hybridization buffer for 40 min to promote hybridization of the mRNA to the bead-bound capture oligos. Next, the beads were removed from the arrays, and they were resuspended in a master mix for reverse transcription containing Maxima H Minus Reverse Transcriptase and buffer, dNTPs, RNase inhibitor, a template switch oligonucleotide, and PEG for 30 min at room temperature, and overnight at 52° C. with end-over-end rotation. […] Then, the eluted products were quantified using a Qubit. cDNA libraries were then created using Illumina Nextera XT DNA Library Preparation Kit. Library cleanup was performed using SPRI purification as described above and library concentration and size distribution was determined using a Qubit fluorometer and Agilent TapeStation. Libraries for each sample were sequenced on a NextSeq 500 and a Nextseq 2000 with the following read structures: read 1: 21 bp; read 2: 50 bp; and index 1: 8 bp, and read 1: 26 bp; read 2: 50 bp; and index 1: 8 bp respectively. For each library 21 bases were sequenced in read 1, containing the cell barcode (12 bp) information and a unique molecular identifier (UMII, 8 bp), whereas 50 bases were obtained for the read 2 sequence. After sequencing, reads were demultiplexed using Illumina bcl2fastq (v2.20.0.422) and the resulting FASTQs were concatenated and aligned to the human “GRCh38-2020-A” reference genome using StarSolo alignment pipeline (v2.7.9a) on Terra.\nSubsequently, low quality cells were filtered out, including cells with fewer than 200 unique genes, greater than 9,000 unique genes, and greater than 40% mitochondrial reads, resulting in 46,751 cells and 25,468 genes. […] Differentially expressed genes were determined using the FindMarkers function on Seurat with “test.use=MAST” and default parameters. […]"}}}
{"smiles": "C[C@@H](NC(=O)c1c(O)n2ccccc2nc1=O)c1ccccc1", "note": "[E6R, 4-hydroxy-2-oxo-N—((R)-1-phenylethyl)-3,4-dihydro-2H-pyrido[, 2-a]pyrimidine-3-carboxamide]", "values": [{"measurement": "effect on expression of CDKN1A, SOCS3 and EGR1", "setting": "[1]", "result": "only perturbed expression of two of the tested downstream genes"}, {"measurement": "genes also downregulated by scRNA-seq, among 22 downregulated in bulk RNA-seq", "setting": "[2]", "result": 5, "unit": "genes"}, {"measurement": "genes also upregulated in scRNA-seq, among 65 upregulated in bulk RNA-seq", "setting": "[2]", "result": 22, "unit": "genes"}]}
{"smiles": "CC(/C=C/C(=O)NO)=C\\[C@@H](C)C(=O)c1ccc(N(C)C)cc1", "note": "[TSA, trichostatin A]", "values": [{"measurement": "effect on expression of CDKN1A, SOCS3 and EGR1", "setting": "[1]", "result": "derepressed"}, {"measurement": "genes also downregulated by scRNA-seq, among 22 downregulated in bulk RNA-seq", "setting": "[2]", "result": 13, "unit": "genes"}, {"measurement": "genes also upregulated in scRNA-seq, among 65 upregulated in bulk RNA-seq", "setting": "[2]", "result": 43, "unit": "genes"}]}
